Data: patent US8304417B2, “Crystalline forms of 4-(6-chloro-2,3-methylenedioxyanilino)-7-[2-(4-methylpiperazin-1-yl)ethoxy]-5-tetrahydropyran-4-yloxyquinazoline” (AstraZeneca AB, priority 2004, dated 2012)
“Also recorded” adds a separate entry of the source.

Tests used:
[1] = Solid-state form stability (storage, presence or absence of water); type: physicochemical
[2] = Hygroscopicity of the crystalline form (exposure to water vapour); type: physicochemical; conditions: solid form, exposure to water vapour during storage

Row | Molecule | stability of the physical form [1] | hygroscopicity [2]
1 | 4-(6-chloro-2,3-methylenedioxyanilino)-7-[2-(4-methylpiperazin-1-yl)ethoxy]-5-tetrahydropyran-4-yloxyquinazoline sesquifumarate salt [AZD0530 sesquifumarate tetrahydrate] | of reasonable stability | 
2 | CN1CCN(CCOc2cc(OC3CCOCC3)c3c(Nc4c(Cl)ccc5c4OCO5)ncnc3c2)CC1.O=C(O)/C=C/C(=O)O.O=C(O)/C=C/C(=O)O [AZD0530 difumarate, 4-(6-chloro-2,3-methylenedioxyanilino)-7-[2-(4-methylpiperazin-1-yl)ethoxy]-5-tetrahydropyran-4-yloxyquinazoline difumarate salt] | does not readily change form during storage if exposed to water vapour | substantially non-hygroscopic
3 | CN1CCN(CCOc2cc(OC3CCOCC3)c3c(Nc4c(Cl)ccc5c4OCO5)ncnc3c2)CC1.O.O.O [AZD0530 trihydrate, 4-(6-chloro-2,3-methylenedioxyanilino)-7-[2-(4-methylpiperazin-1-yl)ethoxy]-5-tetrahydropyran-4-yloxyquinazoline trihydrate] | stable in the presence of water | 
4 | CN1CCN(CCOc2cc(OC3CCOCC3)c3c(Nc4c(Cl)ccc5c4OCO5)ncnc3c2)CC1 [anhydrous AZD0530, 4-(6-chloro-2,3-methylenedioxyanilino)-7-[2-(4-methylpiperazin-1-yl)ethoxy]-5-tetrahydropyran-4-yloxyquinazoline] | very stable in the absence of water; also recorded: prone to convert to AZD0530 trihydrate during storage if substantially anhydrous storage conditions are not maintained | 
